This note sets out measurements from patent US9999622B2, “Pyrazolothiazole compound and medicine comprising same” (NIPPON SHINYAKU CO., LTD., priority 2014, dated 2018).

The structures appear in SMILES notation.

What all share (format): biochemical
For one test, the target named is T1, JAK2 (Homo sapiens, UniProt O60674).
T1 construct: purchased Carna Biosciences, Inc
Nature of the test: JAK tyrosine kinase inhibitory activity in the presence of 1 mM ATP (ELISA), JAK2. In short, it runs like this: (§1)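 Recombinant kinase (7.5 nM JAK1; 0.75 nM JAK2, JAK3 working dilutions) reacted 1 h at 30 °C with 1 mM ATP in Tris-HCl pH 7.5, Tween-20, DTT, on streptavidin plates. Phosphotyrosine detected by HRP anti-pTyr antibody ELISA, TMB absorbance at 450 nm; duplicate wells, DMSO as negative control.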
Background: In an ELISA, binding on a coated surface is turned into a signal by an enzyme label.

The target in the next test is T2, JAK1 (Homo sapiens, UniProt P23458).
T2 construct: purchased Carna Biosciences, Inc
T2 sequence (P23458 whole entry): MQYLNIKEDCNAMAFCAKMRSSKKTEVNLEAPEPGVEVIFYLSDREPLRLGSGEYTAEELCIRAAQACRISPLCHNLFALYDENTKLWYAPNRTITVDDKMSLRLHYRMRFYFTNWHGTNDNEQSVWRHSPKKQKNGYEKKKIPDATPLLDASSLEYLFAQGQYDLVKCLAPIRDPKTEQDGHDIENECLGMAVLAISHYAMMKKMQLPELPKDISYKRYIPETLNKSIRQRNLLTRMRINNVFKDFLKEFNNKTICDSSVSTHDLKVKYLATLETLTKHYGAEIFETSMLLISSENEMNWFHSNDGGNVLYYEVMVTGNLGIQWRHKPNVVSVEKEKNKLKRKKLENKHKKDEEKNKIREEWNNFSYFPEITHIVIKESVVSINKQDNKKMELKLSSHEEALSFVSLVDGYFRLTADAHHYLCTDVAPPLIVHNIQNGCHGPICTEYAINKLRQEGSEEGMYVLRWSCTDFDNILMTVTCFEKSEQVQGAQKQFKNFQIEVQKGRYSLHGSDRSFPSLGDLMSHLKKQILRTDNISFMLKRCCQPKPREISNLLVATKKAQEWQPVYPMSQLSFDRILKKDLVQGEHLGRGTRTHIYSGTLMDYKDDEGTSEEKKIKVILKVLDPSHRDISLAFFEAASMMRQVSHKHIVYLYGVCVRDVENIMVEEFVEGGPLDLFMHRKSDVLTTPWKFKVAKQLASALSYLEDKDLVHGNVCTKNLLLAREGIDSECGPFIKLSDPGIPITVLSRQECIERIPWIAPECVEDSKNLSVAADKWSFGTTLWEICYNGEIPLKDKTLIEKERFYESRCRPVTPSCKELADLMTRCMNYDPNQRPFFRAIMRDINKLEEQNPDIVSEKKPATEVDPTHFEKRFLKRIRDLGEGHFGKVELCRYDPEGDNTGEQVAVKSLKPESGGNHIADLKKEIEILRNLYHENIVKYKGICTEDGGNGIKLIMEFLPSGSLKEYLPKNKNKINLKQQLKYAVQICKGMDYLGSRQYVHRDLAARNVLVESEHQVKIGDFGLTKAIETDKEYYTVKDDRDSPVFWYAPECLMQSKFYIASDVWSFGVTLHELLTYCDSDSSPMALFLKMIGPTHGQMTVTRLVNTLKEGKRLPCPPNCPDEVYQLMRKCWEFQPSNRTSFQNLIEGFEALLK
Nature of the test: JAK tyrosine kinase inhibitory activity in the presence of 1 mM ATP (ELISA), JAK1. An outline of the steps: as §1

A further test deals with T3, JAK3 (Homo sapiens, UniProt P52333).
T3 construct: purchased Carna Biosciences, Inc
T3 sequence (P52333 1-1124): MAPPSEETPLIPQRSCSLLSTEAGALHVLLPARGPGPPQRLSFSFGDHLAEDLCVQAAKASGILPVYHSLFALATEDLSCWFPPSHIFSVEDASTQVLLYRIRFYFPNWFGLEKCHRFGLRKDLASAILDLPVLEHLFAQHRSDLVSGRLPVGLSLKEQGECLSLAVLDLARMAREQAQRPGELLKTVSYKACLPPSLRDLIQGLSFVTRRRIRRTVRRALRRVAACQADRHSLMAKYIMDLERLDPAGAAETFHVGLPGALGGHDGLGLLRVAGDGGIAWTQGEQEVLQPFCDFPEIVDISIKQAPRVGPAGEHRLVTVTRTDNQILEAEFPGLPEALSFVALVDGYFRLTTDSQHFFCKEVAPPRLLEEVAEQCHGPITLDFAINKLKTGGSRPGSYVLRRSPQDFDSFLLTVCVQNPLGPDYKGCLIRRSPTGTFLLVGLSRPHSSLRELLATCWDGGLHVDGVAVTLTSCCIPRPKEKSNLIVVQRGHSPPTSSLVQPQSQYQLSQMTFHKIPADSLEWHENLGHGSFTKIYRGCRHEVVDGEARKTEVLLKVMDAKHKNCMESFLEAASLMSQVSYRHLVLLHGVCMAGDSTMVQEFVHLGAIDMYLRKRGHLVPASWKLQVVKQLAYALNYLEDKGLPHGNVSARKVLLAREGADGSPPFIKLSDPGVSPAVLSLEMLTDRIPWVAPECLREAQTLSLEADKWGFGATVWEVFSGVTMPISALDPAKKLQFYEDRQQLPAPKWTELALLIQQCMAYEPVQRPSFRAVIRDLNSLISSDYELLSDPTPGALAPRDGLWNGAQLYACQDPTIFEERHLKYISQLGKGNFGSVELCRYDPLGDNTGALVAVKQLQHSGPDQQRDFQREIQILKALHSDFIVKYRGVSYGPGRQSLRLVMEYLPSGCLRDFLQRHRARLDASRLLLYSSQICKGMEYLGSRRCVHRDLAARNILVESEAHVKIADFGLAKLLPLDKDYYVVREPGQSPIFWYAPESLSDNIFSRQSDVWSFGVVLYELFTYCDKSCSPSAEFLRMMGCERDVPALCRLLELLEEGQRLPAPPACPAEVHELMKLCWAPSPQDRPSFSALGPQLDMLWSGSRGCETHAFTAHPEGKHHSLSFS
Nature of the test: JAK tyrosine kinase inhibitory activity in the presence of 1 mM ATP (ELISA), JAK3. An outline of the steps:
as §1

T1 sequence (O60674 whole entry): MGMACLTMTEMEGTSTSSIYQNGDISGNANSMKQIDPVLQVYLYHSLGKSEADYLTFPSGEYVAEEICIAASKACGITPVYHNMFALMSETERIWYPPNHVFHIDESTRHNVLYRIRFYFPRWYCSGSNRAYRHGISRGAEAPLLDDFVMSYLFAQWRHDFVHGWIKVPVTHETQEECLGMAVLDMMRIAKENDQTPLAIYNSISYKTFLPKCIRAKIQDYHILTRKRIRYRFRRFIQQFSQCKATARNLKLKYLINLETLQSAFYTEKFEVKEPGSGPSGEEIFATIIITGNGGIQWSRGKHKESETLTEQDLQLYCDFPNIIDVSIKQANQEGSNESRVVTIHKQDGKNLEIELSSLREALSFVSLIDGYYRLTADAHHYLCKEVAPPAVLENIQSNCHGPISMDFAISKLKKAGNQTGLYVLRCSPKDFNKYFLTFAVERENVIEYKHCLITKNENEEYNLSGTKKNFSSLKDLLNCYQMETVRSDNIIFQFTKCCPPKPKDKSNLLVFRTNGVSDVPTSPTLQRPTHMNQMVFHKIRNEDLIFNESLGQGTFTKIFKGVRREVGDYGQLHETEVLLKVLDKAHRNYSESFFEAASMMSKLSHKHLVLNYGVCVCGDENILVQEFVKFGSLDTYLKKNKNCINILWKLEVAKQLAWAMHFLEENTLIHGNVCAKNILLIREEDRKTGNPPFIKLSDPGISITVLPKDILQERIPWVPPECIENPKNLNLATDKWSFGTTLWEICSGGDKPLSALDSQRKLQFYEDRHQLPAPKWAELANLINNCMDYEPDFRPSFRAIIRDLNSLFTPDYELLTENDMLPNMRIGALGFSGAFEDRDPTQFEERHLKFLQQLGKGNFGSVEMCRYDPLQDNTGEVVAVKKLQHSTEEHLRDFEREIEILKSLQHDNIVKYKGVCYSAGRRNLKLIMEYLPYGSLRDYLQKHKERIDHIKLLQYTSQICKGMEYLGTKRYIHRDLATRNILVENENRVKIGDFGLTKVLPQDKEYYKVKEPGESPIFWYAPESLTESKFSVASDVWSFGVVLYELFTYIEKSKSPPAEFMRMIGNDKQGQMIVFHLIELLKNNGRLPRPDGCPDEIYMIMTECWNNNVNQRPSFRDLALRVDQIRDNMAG

A word on the IC50: it is the concentration that gives 50% inhibition. Turning to `COC(=O)NC1CCN(C(=O)c2cc(N[C@@H]3CCN(C)C3)nc(-c3cnn4ccsc34)n2)CC1` [Example 151, Methyl (1-{[6-{[(3R)-1-methylpyrrolidin-3-yl]amino}-2-(pyrazolo[5,1-b][1,3]thiazol-7-yl)pyrimidin-4-yl]carbonyl}piperidin-4-yl)carbamate], the IC50 on JAK2 was more than 10000 nM; at JAK1 it was 2600 nM; on JAK3, more than 10000 nM.

In the case of `COC(=O)NC1CCN(C(=O)c2cc(N[C@@H]3CCN(C(C)=O)C3)nc(-c3cnn4ccsc34)n2)CC1` [Example 152, Methyl (1-{[6-{[(3R)-1-acetylpyrrolidin-3-yl]amino}-2-(pyrazolo[5,1-b][1,3]thiazol-7-yl)pyrimidin-4-yl]carbonyl}piperidin-4-yl)carbamate], the IC50 at JAK2 was more than 10000 nM; on JAK1, 2300 nM; on JAK3, more than 10000 nM.

`CC[C@H](C)Nc1nc(-c2cnn3ccsc23)nc(C(=O)N2CCC(NC(=O)OC)CC2)c1OC` [Example 153, Methyl [1-({6-[(2S)-butan-2-ylamino]-5-methoxy-2-(pyrazolo[5,1-b][1,3]thiazol-7-yl)pyrimidin 4 yl}carbonyl)piperidin-4-yl]carbamate]: the results for the IC50 on JAK2, at JAK1 and at JAK3 were 7200 nM, 210 nM and 9000 nM, respectively.

Regarding `CCOc1c(N[C@@H](C)C2CC2)nc(-c2cnn3ccsc23)nc1C(=O)N1CCC(NC(=O)OC)CC1` [Example 154, Methyl (1-{[6-{[(1S)-1-cyclopropylethyl]amino}-5-ethoxy-2-(pyrazolo[5,1-b][1,3]thiazol-7-yl)pyrimidin-4-yl]carbonyl}piperidin-4-yl)carbamate], the IC50 on JAK2 was determined as 5300 nM; on JAK1 it was 180 nM; at JAK3, 3100 nM.

Take `CCOc1c(N[C@H](C)C(C)(C)C)nc(-c2cnn3ccsc23)nc1C(=O)N1CCC(NC(=O)OC)CC1` [Example 155, Methyl (1-{[6-{[(2R)-3,3-dimethylbutan-2-yl]amino}-5-ethoxy-2-(pyrazolo[5,1 b][1,3]thiazol 7-yl)pyrimidin-4-yl]carbonyl}piperidin-4-yl)carbamate]: the IC50 at JAK2 was 4600 nM; on JAK1 it was 24 nM; on JAK3, 1400 nM.

Regarding `CCC1CCCCN1c1cc(C(=O)N2CCC(NC(=O)C3CC3)CC2)nc(-c2cnn3ccsc23)n1` (stereo not drawn) [Example 157, N-(1-{[6-(2-ethylpiperidin-1-yl)-2-(pyrazolo[5,1-b][1,3]thiazol-7-yl)pyrimidin-4-yl]carbonyl}piperidin-4-yl)cyclopropanecarboxamide], the IC50 on JAK2 was 5100 nM; on JAK1 it was 310 nM; on JAK3, more than 10000 nM.

For `COC(=O)NC1CCN(C(=O)c2cc(NCC(F)(F)F)nc(-c3cnn4ccsc34)n2)CC1` [Example 158, Methyl (1-2-(pyrazolo[5,1-b][1,3]thiazol-7-yl)-6-[(2,2,2-trifluoroethyl)amino]pyrimidine-4-carbonylpiperidin-4-yl)carbamate], the IC50 was more than 10000 nM at JAK2, 1300 nM at JAK1 and more than 10000 nM at JAK3.

`O=C(NC1CCN(C(=O)c2cc(NCc3cccs3)nc(-c3cnn4ccsc34)n2)CC1)C1CC1` [Example 159, N-1-[2-(pyrazolo[5,1-b][1,3]thiazol-7-yl)-6-[(thiophen-2-yl)methyl]aminopyrimidine-4-carbonyl]piperidin-4-ylcyclopropanecarboxamide]: the IC50 on JAK2 is more than 10000 nM; at JAK1, 2600 nM; at JAK3 it was more than 10000 nM.

In the case of `O=C(NC1CCN(C(=O)c2cc(NCc3ccco3)nc(-c3cnn4ccsc34)n2)CC1)C1CC1` [Example 160, N-1-[6-[(furan-2-yl)methyl]amino-2-(pyrazolo[5,1-b][1,3]thiazol-7-yl)pyrimidine-4-carbonyl]piperidin-4-ylcyclopropanecarboxamide], the figures for the IC50 on JAK2, on JAK1 and on JAK3 were more than 10000 nM, 980 nM and more than 10000 nM, respectively.

With `COC(=O)NC1CCN(C(=O)c2cc(N[C@H](C)C3CCCCC3)nc(-c3cnn4ccsc34)n2)CC1` [Example 161, Methyl 1-[6-[(1R)-1-cyclohexylethyl]amino-2-(pyrazolo[5,1-b][1,3]thiazol-7-yl)pyrimidine-4-carbonyl]piperidin-4-ylcarbamate], the half-maximal inhibitory concentration (IC50) is more than 10000 nM on JAK2, 47 nM on JAK1 and more than 10000 nM at JAK3.

Take `COC(=O)NC1CCN(C(=O)c2cc(NC(C)c3ccncc3)nc(-c3cnn4ccsc34)n2)CC1` (stereo not drawn) [Example 162, Methyl 1-[2-(pyrazolo[5,1 b][1,3]thiazol-7-yl)-6-[1-(pyridin-4-yl)ethyl]aminopyrimidine-4-carbonyl]piperidin-4-ylcarbamate]: the IC50 is more than 10000 nM on JAK2, 1100 nM at JAK1 and more than 10000 nM at JAK3.

In the case of `COC(=O)NC1CCN(C(=O)c2cc(NCCC3CC3)nc(-c3cnn4ccsc34)n2)CC1` [Example 163, Methyl (1-6-[(2-cyclopropylethyl)amino]-2-(pyrazolo[5,1-b][1,3]thiazol-7-yl)pyrimidine-4-carbonylpiperidin-4-yl)carbamate], the IC50 is more than 10000 nM on JAK2, 450 nM on JAK1 and 5600 nM at JAK3.

Take `COC(=O)NC1CCN(C(=O)c2cc(OCC3CN(C(=O)OC(C)(C)C)C3)nc(-c3cnn4ccsc34)n2)CC1` [Example 164, Tert-butyl 3-([6-4-[(methoxycarbonyl)amino]piperidine-1-carbonyl-2-(pyrazolo[5,1-b][1,3]thiazol-7-yl)pyrimidin-4-yl]oxymethyl)azetidine-1-carboxylate]: the IC50 is more than 10000 nM at JAK2, 2600 nM at JAK1 and more than 10000 nM on JAK3.

As for `C[C@H](Nc1cc(C(=O)N2CCC(NC(=O)C3CCC3)CC2)nc(-c2cnn3ccsc23)n1)C1CC1` [Example 165, N-1-[6-[(1S)-1-cyclopropylethyl]amino-2-(pyrazolo[5,1-b][1,3]thiazol-7-yl)pyrimidine-4-carbonyl]piperidin-4-yl cyclobutanecarboxamide], the IC50 at JAK2 is more than 10000 nM; on JAK1 it was 40 nM; on JAK3, 1200 nM.

For the compound `C[C@H](Nc1cc(C(=O)N2CCC(NC(=O)C3CCCCC3)CC2)nc(-c2cnn3ccsc23)n1)C1CC1` [Example 167, N-1-[6-[(1S)-1-cyclopropylethyl]amino-2-(pyrazolo[5,1-b][1,3]thiazol-7-yl)pyrimidine-4-carbonyl]piperidin-4-ylcyclohexanecarboxamide], the IC50 stood at 9500 nM on JAK2, 230 nM at JAK1 and 1100 nM on JAK3.

As to `O=C(NC1CCN(C(=O)c2cc(N[C@H]3CC[C@H](O)CC3)nc(-c3cnn4ccsc34)n2)CC1)C1CC1` [Example 168, N-(1-6-[(trans-4-hydroxycyclohexyl)amino]-2-(pyrazolo[5,1-b][1,3]thiazol-7-yl)pyrimidine-4-carbonylpiperidin-4-yl)cyclopropanecarboxamide], the IC50 was more than 10000 nM on JAK2, 1200 nM at JAK1 and 3200 nM at JAK3.

Consider `C[C@@H](Nc1cc(C(=O)N2CCC(NC(=O)C3CC3)CC2)nc(-c2cnn3ccsc23)n1)C1CCCCC1` [Example 169, N-1-[6-[(1R)-1-cyclohexylethyl]amino-2-(pyrazolo[5,1-b][1,3]thiazol-7-yl)pyrimidine-4-carbonyl]piperidin-4-ylcyclopropanecarboxamide], for which the IC50 at JAK2 was 6400 nM; at JAK1 it was 160 nM; at JAK3, 2100 nM.

`CC(Nc1cc(C(=O)N2CCC(NC(=O)C3CC3)CC2)nc(-c2cnn3ccsc23)n1)c1ccncc1` (stereo not drawn) [Example 170, N-1-[2-(pyrazolo[5,1-b][1,3]thiazol 7 yl) 6 [1-(pyridin-4-yl)ethyl]aminopyrimidine-4-carbonyl]piperidin-4-ylcyclopropanecarboxamide]: the IC50 on JAK2 was more than 10000 nM; on JAK1 it was 1600 nM; on JAK3 it was more than 10000 nM.
